Laboratory results from article PMC9231284, “Hesperidin Bioavailability Is Increased by the Presence of 2S-Diastereoisomer and Micronization—A Randomized, Crossover and Double-Blind Clinical Trial” (Nutrients, 2022).

Assays:
[1] = cited from earlier work
[2] = design: method as in PMID 28747329, PMID 26861391, PMID 30669635; conditions: humans, oral; cited from earlier work
[3] = First phase: relative urinary hesperidin excretion in 24 h urine after 500 mL orange juice with 345 mg hesperidin; format: in vivo, human; conditions: for Relative urinary hesperidin excretion, low excretors: N=3, mean ± SD
Method: The study consisted of two phases. In the first phase, 30 volunteers consumed 500 mL of orange juice (OJ) with 345 mg of hesperidin [9], and the levels of hesperidin excreted in urine were determined. The OJ used in the first phase of the study was the hesperidin OJ used in previous studies conducted by our group. The objective of this first phase of the study was to select volunteers with intermediate hesperidin metabolite levels excreted in urine to reduce the variability in the results in the second phase of the study.
For the first phase of the study—after at least 8 h of fasting—the participants’ urine was collected before the intake of 500 mL of OJ (basal urine) and after the intake of the OJ for 24 h, accumulated in a single volume urine (Figure 1). Urine samples were homogenized and centrifuged at 1900 g for 10 min at 4 °C, and the supernatant was collected and subdivided into aliquots which were stored at −80 °C until analysis.
Relative urinary hesperidin excretion values (% of hesperidin ingested) obtained in the first phase of the study were used to select the participants for the second phase of the study. It was calculated by the ratio between the sum of hesperidin metabolites and the amount of hesperidin consumed by the participants (345 mg). With these values, 18 volunteers with intermediate relative urinary hesperidin excretion values were selected for the second phase.
To obtain the main and secondary outcomes, the urinary levels of hesperidin metabolites and catabolites at baseline—before consuming the hesperidin supplement—and up to 24 h after consuming the hesperidin supplement in four urine fractions (0–3 h; 3–6 h; 6–8 h; 8–24 h) were determined. In addition, the serum levels of hesperidin metabolites and catabolites at baseline and at 2 h, 3 h, 4 h, 5 h, 6 h, 7 h, 8 h and 24 h after consuming the hesperidin supplement were quantified. To obtain the relative urinary hesperidin excretion in the first phase of the study, the urinary levels of hesperidin metabolites before consuming the OJ and in the 24 h urine after consuming the hesperidin supplement were determined.
Hesperetin and related metabolites were determined in urine and serum samples by liquid chromatography coupled to triple quadrupole mass spectrometry (LC-QqQ) using a UHPLC 1290 Infinity II Series coupled to a QqQ/MS 6490 Series (Agilent Technologies, Palo Alto, CA, USA) and an ACQUITY UPLC BEH C18 (100 × 2.1 mm; 1.8 µm) column (Waters, Milford, MA, USA). Mobile phase A was 100% water with 0.5% acetic acid and 10 mM ammonium acetate, and mobile phase B was 100% methanol. The column temperature was set at 45 °C and the injection volume was 5 µL. The triple quadrupole operated in negative electrospray ionization mode (ESI-). The source conditions were set at 25 psi for the nebulizer gas, 240 °C for the gas temperature, 17 L/min for the gas flow, 250 °C for the sheath gas temperature, 12 L/min for the sheath gas flow, 3500 V for the capillary voltage and 0 V for the nozzle voltage. The standards used for quantification purposes were: Hesperetin and Hesperidin (Extrasynthese, Genay, France); Hesperetin 7-O-beta-D-glucuronide, Hesperetin 3-O-beta-D-glucuronide and Hesperetin 7,3′-di-O-beta-D-glucuronide (Toronto Research Chemicals; North York, ON, Canada); Hesperitin 7-O-sulfate (Santa Cruz Biotechnology, Dallas, TX, USA). Hesperitin-d3 and Diosmetin 7-O-β-D-Glucuronide-d3 (Toronto Research Chemicals; North York, ON, Canada) were used as internal standards. […]

[4] = design: method as in PMID 18058792; conditions: rats, intravenous administration of racemic hesperetin; cited from earlier work

SMILES | Solubility [1] | Water solubility [1] | Share of ingested hesperidin that reaches the large intestine [2] [%] | Relative urinary hesperidin excretion, low excretors [3] [%] | Relative urinary hesperidin excretion, low excretors ([3]; listed as Hesperidin) [%] | Relative urinary hesperidin excretion, high excretors ([3]; N=4, mean ± SD) [%] | Relative urinary hesperidin excretion, intermediate excretors ([3]; N=21, mean ± SD) [%] | Mean relative urinary hesperidin excretion determined as hesperetin or hesperetin conjugates in urine ([3]; all participants N=28, mean ± SD) [%] | AUC of R-diastereoisomer compared to S-diastereoisomer [4] [fold]
COc1ccc([C@@H]2CC(=O)c3c(O)cc(O[C@@H]4O[C@H](CO[C@@H]5O[C@@H](C)[C@H](O)[C@@H](O)[C@H]5O)[C@@H](O)[C@H](O)[C@H]4O)cc3O2)cc1O [hesperidin, hesperetin-7-O-rutinoside] | low | poor | 70 | 0.74 ± 0.11 | 0.743 ± 0.112 | 6.06 ± 1.46 | 2.31 ± 1.01 | 2.67 ± 1.79 | –
COc1ccc([C@H]2CC(=O)c3c(O)cc(O)cc3O2)cc1O [R-diastereoisomer, hesperetin] | – | – | – | – | – | – | – | – | 3.2
